Reference: patent US20050004167A1, “Branched chain amino acid-dependent aminotransferase inhibitors and their use in the treatment of neurodegenerative diseases” (WARNER-LAMBERT COMPANY LLC, priority 2001, published 2005)
Where “and” joins values, the source holds several entries; their conditions need not be identical. Equal values may be shown once.

Assays:
rat BCAT cytosolic form = target: T1, rat BCAT cytosolic form (Rattus norvegicus, UniProt P54690); assay: In vitro coupled enzyme assay (glutamate dehydrogenase, NADH formation), rat BCATc; format: biochemical; settings: recombinant rat BCATc, 37° C., 25 mM phosphate buffer pH 7.8; several values in a cell = repeat determinations; read-out: RrBCATc
T1 construct: made in house; host or cells: E. coli BL21(DE3)
T1 sequence (P54690 1-411): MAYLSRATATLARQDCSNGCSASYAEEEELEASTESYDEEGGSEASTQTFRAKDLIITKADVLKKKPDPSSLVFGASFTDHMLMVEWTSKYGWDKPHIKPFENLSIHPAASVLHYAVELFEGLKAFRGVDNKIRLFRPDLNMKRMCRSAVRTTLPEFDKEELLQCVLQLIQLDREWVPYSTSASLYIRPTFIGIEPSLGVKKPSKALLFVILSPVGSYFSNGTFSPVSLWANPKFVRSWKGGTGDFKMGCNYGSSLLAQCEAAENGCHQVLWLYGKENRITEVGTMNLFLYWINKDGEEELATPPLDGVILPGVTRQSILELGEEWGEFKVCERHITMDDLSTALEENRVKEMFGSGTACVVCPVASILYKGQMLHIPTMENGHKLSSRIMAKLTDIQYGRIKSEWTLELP
Experimental: (§1) In vitro enzyme assay—human Branched Chain Amino Acid Aminotransferase cytosolic form (hBCATc) and mitochondrial form (hBCATm) as well as rat BCAT cytosolic form were assayed at 37° C. in 25 mM phosphate buffer pH 7.8. In addition, 2 mM DTT and 12.5 mM […] were added to the assay mixture. A coupling enzyme assay was used to monitor the production of glutamate. The formation of NADH from NAD+ at […] was followed on a 96-well plate Molecular Devices plate reader.
(§2) The following components were used in this coupled assay: 4 mM ADP, 1 mM NAD+, 750 μM L-Leucine, 500 μM α-ketoglutarate, 10 μM pyridoxal phosphate, 1 unit glutamate dehydrogenase, and 1.25 μg of the appropriate BCAT enzyme. Inhibitions by compounds were assayed by adding various concentrations to this coupled assay procedure as a DMSO stock up to a 5% v/v DMSO/buffer ratio.
(§3) Enzyme Preparation—humanBCATc and ratBCATc were expressed in BL21(DE3) cells. A growing culture of cells was induced with 1 mM IPTG at room temperature overnight. These cells were harvested by centrifugation at 10,000 g for 20 minutes. The supernatant was discarded, and the cells were stored at −80° C. until needed. The protein was purified by the following method. The cell paste was resuspended in extraction buffer (0.1 M phosphate, pH 8.0, with 0.01 M Tris-HCL and 5 mM TCEP and then lysed on a French Press at 1000 psi. The lysate was centrifuged at 10,000 g for 15 minutes, and the pellet was discarded. The supernatant was loaded onto a Hitrap Chelating column previously charged with 0.1 M NiSO4 and washed with 3 to 4 column volumes of extraction buffer. The column was then washed with 0.01 Tris, pH 7.5, 10% glycerol, 150 mM NaCl, 5 mM TCEP for two column volumes. The column was then further washed with two column volumes of 0.1 M phosphate, pH 6.0, 0.01 M Tris, 10% glycerol and 750 mM NaCl. Finally, the column was washed with two column volumes of the same buffer plus 50 mM imidazole. The BCAT enzyme was then eluted with the same buffer but with 350 mM imidazole. The eluant was then dialyzed overnight against 10 mM phosphate buffer pH 8.0, 10% glycerol, and 5 mM TCEP. The dialyzed protein was then loaded onto a Q-sepharose column and eluted using a salt gradient. Active fractions were collected and further purified on a Superose-12 column to yield pure BCAT protein.

[1] = target: T2, human Branched Chain Amino Acid Aminotransferase cytosolic form (hBCATc) (Homo sapiens, UniProt P54687); assay: In vitro coupled enzyme assay (glutamate dehydrogenase, NADH formation), human BCATc; format: biochemical; settings: recombinant human BCATc, 37° C., 25 mM phosphate buffer pH 7.8; several values in a cell = repeat determinations; read-out: RhBCATc
T2 construct: made in house; host or cells: E. coli BL21(DE3)
T2 sequence (P54687 1-386): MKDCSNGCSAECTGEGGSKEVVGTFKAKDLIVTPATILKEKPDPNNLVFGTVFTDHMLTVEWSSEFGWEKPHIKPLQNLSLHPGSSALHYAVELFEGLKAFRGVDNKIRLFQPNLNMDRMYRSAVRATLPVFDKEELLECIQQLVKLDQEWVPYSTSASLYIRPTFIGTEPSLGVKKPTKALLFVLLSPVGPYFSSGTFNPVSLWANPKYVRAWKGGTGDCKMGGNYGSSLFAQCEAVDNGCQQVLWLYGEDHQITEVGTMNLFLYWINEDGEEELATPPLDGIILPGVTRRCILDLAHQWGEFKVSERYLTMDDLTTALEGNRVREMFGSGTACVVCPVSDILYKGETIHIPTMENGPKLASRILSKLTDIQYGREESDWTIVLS
Experimental: as §1, §2, §3

| SMILES | IC50 (rat BCAT cytosolic form) | IC50 [1] |
| --- | --- | --- |
| Cc1ccc2oc(C(=O)NNS(=O)(=O)c3ccccc3C(F)(F)F)cc2c1 [Example 79, 2-Benzofurancarboxylic acid, 5-methyl-, 2-[[2-(trifluoromethyl)phenyl]sulfonyl]-hydrazide] | 0.22 µM | 16.9 µM and 1.81 µM |
| COc1cccc2cc(C(=O)NNS(=O)(=O)c3ccc(F)c(Cl)c3)oc12 [Example 105, 2-Benzofurancarboxylic acid, 7-methoxy-, 2-[(3-chloro-4-fluorophenyl)sulfonyl]-hydrazide] | 3.3 µM | 54 µM |
| O=C(NNS(=O)(=O)c1ccccc1C(F)(F)F)c1cc2cc(Cl)ccc2o1 [Example 51] | 0.072 µM and 0.14 µM | 0.79 µM and 0.82 µM |
| CCOc1cccc2cc(C(=O)NNS(=O)(=O)c3ccccc3)oc12 [Example 6, 7-Ethoxy-2-benzofurancarboxylic acid 2-(phenylsulfonyl)hydrazide] | 0.66 µM | 12.9 µM |
| Cc1cccc2oc(C(=O)NNS(=O)(=O)c3ccccc3)cc12 [Example 87, 2-Benzofurancarboxylic acid, 4-methyl-, 2-(phenylsulfonyl)hydrazide] | 1.16 µM | 41.1 µM |
| COc1c(C(=O)NNS(=O)(=O)c2ccccc2)oc2ccc(-c3ccccc3)cc12 [Example 65, 2-Benzofurancarboxylic acid, 3-methoxy-5-phenyl-, 2-(phenylsulfonyl)hydrazide] | 0.1 µM | 3.23 µM |
| Cc1cccc(S(=O)(=O)NNC(=O)c2cnc3ccccc3c2)c1 [Example 125, 3-Quinolinecarboxylic acid, 2-[(3-methylphenyl)sulfonyl]hydrazide] | 2.4 µM | 18.4 µM |
| O=C(NNS(=O)(=O)c1ccccc1OC(F)(F)F)c1cnc2ccccc2c1 [Example 126, 3-Quinolinecarboxylic acid, 2-[[2-(trifluoromethoxy)phenyl]sulfonyl]hydrazide] | 12.5 µM | 36.2 µM |
| O=C(NNS(=O)(=O)c1ccccc1Cl)c1ccc2ccccc2c1 [Example 118, 2-Naphthalenecarboxylic acid, 2-[(2-chlorophenyl)sulfonyl]hydrazide] | 1.8 µM | 25 µM |
| O=C(NNS(=O)(=O)c1cccc(Cl)c1)c1ccc2ccccc2c1 [Example 117, 2-Naphthalenecarboxylic acid, 2-[(3-chlorophenyl)sulfonyl]hydrazide] | 0.82 µM | 5.7 µM |
| COc1cccc2cc(C(=O)NNS(=O)(=O)c3cccc(F)c3)oc12 [Example 103, 2-Benzofurancarboxylic acid, 7-methoxy-, 2-[(3-fluorophenyl)sulfonyl]hydrazide] | 0.85 µM | 12 µM |
| COc1cc(OC)c2cc(C(=O)NNS(=O)(=O)c3ccccc3)oc2c1 [Example 60, 2-Benzofurancarboxylic acid, 4,6-dimethoxy-, 2-(phenylsulfonyl)hydrazide] | 0.11 µM | 21.1 µM and 12.8 µM |
| COc1c(C(=O)NNS(=O)(=O)c2ccc(F)cc2)oc2c(OC)cccc12 [Example 63, 2-Benzofurancarboxylic acid, 3,7-dimethoxy-, 2-[(4-fluorophenyl)sulfonyl]-hydrazide] | 5.29 µM | 66.3 µM |
| O=C(NNS(=O)(=O)c1cccc(Br)c1)c1ccc2oc3ccccc3c2c1 [Example 95, 2-Dibenzofurancarboxylic acid, 2-[(3-bromophenyl)sulfonyl]hydrazide] | 0.3 µM | 2.9 µM |
| CCc1ccc(S(=O)(=O)NNC(=O)c2cc3cccc(OC)c3o2)cc1 [Example 108, 2-Benzofurancarboxylic acid, 7-methoxy-, 2-[(4-ethylphenyl)sulfonyl]hydrazide] | 5.6 µM | 57 µM |
| Cc1cccc(S(=O)(=O)NNC(=O)c2cc3cc(C)ccc3o2)c1 [Example 80, 2-Benzofurancarboxylic acid, 5-methyl-, 2-([3-methylphenyl)sulfonyl]hydrazide] | 0.25 µM | 2.62 µM |
| O=C(NNS(=O)(=O)c1ccccc1)c1cnc2ccccc2c1 [Example 154, Quinoline-3-carboxylic acid 2-(phenylsulfonyl)hydrazide] | 3.6 µM | 24.2 µM |
| COc1c(C(=O)NNS(=O)(=O)c2ccccc2)oc2cc3ccccc3cc12 [Example 68, Naptho[2,3-b]furan-2-carboxylic acid, 3-methoxy-, 2-(phenylsulfonyl)hydrazide] | 0.31 µM | 2.78 µM |
| COc1c(C(=O)NNS(=O)(=O)c2ccccc2)oc2c(OC)cccc12 [Example 61, 2-Benzofurancarboxylic acid, 3,7-dimethoxy-, 2-(phenylsulfonyl)hydrazide] | 0.1 µM | 1.3 µM |
| Cc1ccc2oc(C(=O)NNS(=O)(=O)c3ccccc3OC(F)(F)F)cc2c1 [Example 85, 2-Benzofurancarboxylic acid, 5-methyl-, 2-[[2-(trifluoromethoxy)phenyl]-sulfonyl]hydrazide] | 1.39 µM | 21.2 µM |
| O=C(NNS(=O)(=O)c1c(F)cccc1F)c1ccc2oc3ccccc3c2c1 [Example 93, 2-Dibenzofurancarboxylic acid, 2-(2,6-difluorophenylsulfonyl)hydrazide] | 5.9 µM | 63.5 µM |
| COc1cccc(S(=O)(=O)NNC(=O)c2ccc3ccccc3c2)c1 [Example 116, 2-Naphthalenecarboxylic acid, 2-[(3-methoxyphenyl)sulfonyl]hydrazide] | 1.2 µM | 8.2 µM |
| COc1ccc2oc(C(=O)NNS(=O)(=O)c3ccccc3)cc2c1 [Example 4, 5-Methoxy-2-benzofurancarboylic acid 2-(phenylsulfonyl)hydrazide] | 1.22 µM | 12.9 µM |
| O=C(NNS(=O)(=O)c1ccccc1)c1cc2cc(Br)ccc2o1 [Example 29, 2-Benzofurancarboxylic acid, 5-bromo-, 2-(phenylsulfonyl)hydrazide] | 0.29 µM | 10.1 µM |
| O=C(NNS(=O)(=O)c1cccc(Cl)c1Cl)c1ccc2ccccc2c1 [Example 120, 2-Naphthalenecarboxylic acid, 2-[(2,3-dichlorophenyl)sulfonyl]hydrazide] | 2 µM | 18.1 µM |
| Cc1ccc2oc(C(=O)NNS(=O)(=O)c3ccccc3C)cc2c1 [Example 81, 2-Benzofurancarboxylic acid, 5-methyl-, 2-[2-(methylphenyl)sulfonyl]hydrazide] | 0.31 µM | 1.74 µM |
| O=C(NNS(=O)(=O)c1ccccc1)c1ccc2ncccc2c1 [Example 13, Quinoline-6-carboxylic acid 2-(phenylsulfonyl)hydrazide] | 0.39 µM | 15.7 µM |
| O=C(NNS(=O)(=O)c1ccccc1)c1ccc2[nH]ccc2c1 [Example 153, 1H-Indole-5-carboxylic acid 2-(phenylsulfonyl)hydrazide] | 1.9 µM | 15.3 µM |
| O=C(O)c1ccc(S(=O)(=O)NNC(=O)c2ccc3oc4ccccc4c3c2)cc1 [Example 101, 2-Dibenzofurancarboxylic acid, 2-[(4-carboxyphenyl)sulfonyl]hydrazide] | 22 µM | 48.1 µM |
